Like-named read-outs stand apart in the source and are kept apart here.
What was measured:
[1] = Solubility test of anthracene derivatives in solvents; assay type: physicochemical; details: for solubility at 10 min: organic solvent or mixture, thermodynamic from solid, ultrasonic waves 10 minutes; for solubility in a solvent (summary in words): solubility test at 10 g/L, six solvents
Procedure: As comparative examples, compositions were produced by dissolving samples 1-1 to 1-4 in solvents. As manufacturing examples 1, compositions were produced by dissolving samples 1-5 to 1-14 in solvents. The solubility test was performed on the solvents of the anthracene derivatives of the samples […]. The following six solvents were used: diethyl ether, toluene, ethyl acetate, anisole, acetone, and 1,4-dioxane.
0.01 g of each of the anthracene derivatives of the samples 1-1 to 1-14 was measured and put in a sample bottle, 1 mL of a solvent was added in the sample bottle (the solution concentration was 10 g/L), and ultrasonic waves were applied thereto for 10 minutes.

[2] = Film quality test of spin-coated thin films; assay type: physicochemical; design: key to Film Quality Test, Solvent Toluene / Film Quality Test, Solvent Ethyl acetate / Film Quality Test, Solvent Anisole / Film Quality Test, Solvent dioxane: ◯: a circle is marked in the case of a transparent film where crystallization or white turbidity is not seen; X: a cross is marked in the case of a film where crystallization or white turbidity is seen; details: for Film Quality Test, Solvent Anisole: 10 g/L in anisole; for Film Quality Test, Solvent Anisole / Film Quality Test, Solvent dioxane / Film Quality Test, Solvent Ethyl acetate / Film Quality Test, Solvent Toluene: spin coated on glass substrate at 1000 rpm (60 seconds); for Film Quality Test, Solvent dioxane: 10 g/L in dioxane; for Film Quality Test, Solvent Ethyl acetate: 10 g/L in ethyl acetate; for Film Quality Test, Solvent Toluene: 10 g/L in toluene
Procedure: A composition of each of the samples was adjusted at a concentration of 10 g/L which is the same as that of the solubility test and was deposited over a glass substrate with a size of 5 inches at 1000 rpm (60 seconds) with a spin coater.

[3] = 0.01 g in 1 mL 1,4-dioxane (10 g/L), read-out: Solubility Test, Solvent dioxane
[4] = 0.01 g in 1 mL acetone (10 g/L), read-out: Solubility Test, Solvent acetone
[5] = 0.01 g in 1 mL anisole (10 g/L), read-out: Solubility Test, Solvent Anisole
[6] = 0.01 g in 1 mL diethyl ether (10 g/L), read-out: Solubility Test, Solvent Diethyl ether
[7] = 0.01 g in 1 mL ethyl acetate (10 g/L), read-out: Solubility Test, Solvent Ethyl acetate
[8] = 0.01 g in 1 mL toluene (10 g/L), read-out: Solubility Test, Solvent Toluene

Row | SMILES | solubility at 10 min [1, 3] [µg/mL] | solubility at 10 min [1, 4] [µg/mL] | solubility at 10 min [1, 5] [µg/mL] | solubility at 10 min [1, 6] [µg/mL] | solubility at 10 min [1, 7] [µg/mL] | solubility at 10 min [1, 8] [µg/mL] | solubility in a solvent (summary in words) [1] | Film Quality Test, Solvent Anisole [2] | Film Quality Test, Solvent dioxane [2] | Film Quality Test, Solvent Ethyl acetate [2] | Film Quality Test, Solvent Toluene [2] | film quality (summary in words) ([2]; film quality test, spin coated from 10 g/L composition)
1 | c1ccc(-c2c3ccccc3c(-c3ccccc3)c3ccccc23)cc1 [Sample 1-1, 9,10-diphenylanthracene, reference compound] | < 10000 | < 10000 | > 10000 | < 10000 | < 10000 | > 10000 | high solubility | X | X | X | X | crystallized film with a bad quality
2 | c1ccc2c(-c3ccc(-n4c5ccccc5c5ccccc54)cc3)c3ccccc3c(-c3ccc(-n4c5ccccc5c5ccccc54)cc3)c2c1 [Sample 1-2, 9,10-bis(4-(N-carbazolyl)phenyl)anthracene, reference compound] | < 10000 | < 10000 | < 10000 | < 10000 | < 10000 | < 10000 | low solubility |  |  |  |  | 
3 | c1ccc(-c2c3ccccc3c(-c3ccc(-n4c5ccccc5c5cc(-c6ccc7c(c6)c6ccccc6n7-c6ccccc6)ccc54)cc3)c3ccccc23)cc1 [Sample 1-3, 9-phenyl-9′-[4-(10-phenyl-9-anthryl)phenyl]-3,3′-bi(9H-carbazole), reference compound] | < 10000 | < 10000 | < 10000 | < 10000 | < 10000 | < 10000 | low solubility |  |  |  |  | 
4 | CC(C)(C)c1ccc2c(-c3ccc(-c4ccc5c(c4)c4ccccc4n5-c4ccccc4)cc3)c3ccccc3c(-c3ccc(-c4ccc5c(c4)c4ccccc4n5-c4ccccc4)cc3)c2c1 [Sample 1-4, 3,3′-(2-tert-buthylanthracene-9,10′-diyldi-4,1-phenylene)bis(9-phenyl-9H-carbazole), reference compound] |  |  |  |  |  |  | low solubility |  |  |  |  | 
5 | c1ccc(-c2c3ccccc3c(-c3ccc(-n4c5ccccc5c5ccccc54)cc3)c3ccccc23)cc1 [Sample 1-5, 9-[4-(N-carbazolyl)]phenyl-10-phenylanthracene] |  |  |  |  |  |  |  | ◯ | X | X | ◯ | 
6 | c1ccc(-c2c3ccccc3c(-c3ccc(-c4ccc5c(c4)c4ccccc4n5-c4ccccc4)cc3)c3ccccc23)cc1 [Sample 1-6, 9-phenyl-3-[4-(10-phenyl-9-anthryl)phenyl]-9H-carbazol] | > 10000 | < 10000 | > 10000 | < 10000 | < 10000 | > 10000 |  | ◯ | X | X | ◯ | 
7 | c1ccc(-c2c3ccccc3c(-c3cccc(-n4c5ccccc5c5ccccc54)c3)c3ccccc23)cc1 [Sample 1-7, 9-[3-(10-phenyl-9-anthryl)phenyl]-9H-carbazole] | > 10000 | < 10000 | > 10000 | < 10000 | < 10000 | > 10000 |  | ◯ | ◯ | X | ◯ | 
8 | CC(C)(C)c1ccc(-c2c3ccccc3c(-c3ccc(-n4c5ccccc5c5ccccc54)cc3)c3ccccc23)cc1 [Sample 1-8, 9-(4-tert-butylphenyl)-10-[4-(carbazol-9-yl)]phenylanthracene] |  |  |  |  |  |  |  | ◯ | X | X | ◯ | 
9 | c1ccc2cc(-c3c4ccccc4c(-c4ccc(-n5c6ccccc6c6ccccc65)cc4)c4ccccc34)ccc2c1 [Sample 1-9, 9-[4-(carbazol-9-yl)phenyl]-10-(2-naphthyl)anthracene] | > 10000 | < 10000 | > 10000 | < 10000 | < 10000 | > 10000 |  | ◯ | X | X | ◯ | 
10 | c1ccc(-c2ccc3c(c2)c2cc(-c4ccccc4)ccc2n3-c2ccc(-c3c4ccccc4c(-c4ccccc4)c4ccccc34)cc2)cc1 [Sample 1-10, 3,6-diphenyl-9-[4-(10-phenyl-9-antryl)phenyl]-9H-carbazole] |  |  |  |  |  |  |  | ◯ | X | X | ◯ | 
11 | c1ccc(-c2c3ccccc3c(-c3ccccc3)c3cc(-c4ccc(-n5c6ccccc6c6ccccc65)cc4)ccc23)cc1 [Sample 1-11, 9-[4-(9,10-diphenyl-2-anthryl)phenyl]-9H-carbazole] | > 10000 | < 10000 | > 10000 |  | < 10000 | > 10000 |  | ◯ | X | X | ◯ | 
12 | c1ccc(-c2c3ccccc3c(-c3ccccc3)c3cc(-n4c5ccccc5c5ccccc54)ccc23)cc1 [Sample 1-12, 9-(9,10-diphenyl-2-anthryl)-9H-carbazole] | > 10000 | < 10000 | > 10000 | > 10000 | > 10000 | > 10000 |  | ◯ | X | ◯ | ◯ | 
13 | c1ccc(-c2c3ccccc3c(-c3ccccc3)c3cc(-c4ccc5c(c4)c4ccccc4n5-c4ccccc4)ccc23)cc1 [Sample 1-13, 3-(9,10-diphenyl-2-anthryl)-9-phenyl-9H-carbazole] | > 10000 | > 10000 | > 10000 |  | > 10000 | > 10000 |  | ◯ | X | ◯ | ◯ | 
14 | c1ccc(-c2ccccc2-c2c3ccccc3c(-c3ccccc3-c3ccccc3)c3cc(-n4c5ccccc5c5ccccc54)ccc23)cc1 [Sample 1-14, 9-[9,10-bis(2-biphenyl)-2-anthryl]-9H-carbazole] |  |  |  |  |  |  |  | ◯ | X | ◯ | ◯ | 

From patent publication US8518492B2, “Composition, method for manufacturing thin film, and method for manufacturing light-emitting element” (Semiconductor Energy Laboratory Co., Ltd., priority 2008, dated 2013)
